Laboratory results as given in patent US11672814B2, “NGNA compositions and methods of use” (priority 2008, dated 2023).
Read-outs that look alike come from different tables or passages of the source.

Legend:
HRV-16 = test: Virucidal assay, Rhinovirus titrated on Wi-38 cells (CPE readout); type: cell-based, Human Rhinovirus; settings: 10 minutes
HSV-1, SC-16 = test: Virucidal assay, HSV-1 titrated on Vero cells (CPE readout); type: cell-based, Herpes Simplex Virus type 1; settings: 10 minutes; for Sample titer: control virus titer 6.25
[1] = tested on: Influenza B virus B/Malaysia/2506/2004; type: cell-based; settings: 10 minutes, MDCK
Feline Calicivirus (FCV) = test: Virucidal assay, Norovirus surrogate virus titrated on CRFK cells (CPE readout); type: cell-based; settings: 10 minutes

Question: With O=C(CO)N[C@H]1[C@H]([C@H](O)[C@H](O)CO)O[C@](O)(C(=O)O)C[C@@H]1O [NGNA, n-glycolylneuraminic acid] as the compound, how does the Virus reduction (HRV-16; NGNA 10 nM) read?
Answer: Its Virus reduction is 90.00%.

Question: And the Sample titer (HRV-16; NGNA 10 nM, control virus titer 4.50)?
Answer: The Sample titer was 3.50 log10 TCID50/ml.

Question: And the Virus reduction (HRV-16; NGNA 10 μM)?
Answer: Its Virus reduction is 90.00%.

Question: What about the Sample titer (HRV-16; NGNA 10 μM, control virus titer 4.50) of the same compound?
Answer: The Sample titer was 3.50 log10 TCID50/ml.

Question: What about the Virus reduction (HRV-16; NGNA 10 mM) of the same compound?
Answer: Its Virus reduction is 99.44%.

Question: And the Sample titer (HRV-16; NGNA 10 mM, control virus titer 4.75)?
Answer: The Sample titer was 2.50 log10 TCID50/ml.

Question: What about the Virus reduction (HSV-1, SC-16; NGNA 10 nM) of the same compound?
Answer: The Virus reduction was 0.00%.

Question: What about the Sample titer (HSV-1, SC-16; NGNA 10 nM) of the same compound?
Answer: The Sample titer was 7.00 log10 TCID50/ml.

Question: And the Virus reduction (HSV-1, SC-16; NGNA 10 μM)?
Answer: Its Virus reduction is 0.00%.

Question: And the Sample titer (HSV-1, SC-16; NGNA 10 μM)?
Answer: The Sample titer was 6.25 log10 TCID50/ml.

Question: And the Virus reduction (HSV-1, SC-16; NGNA 10 mM)?
Answer: Its Virus reduction is 99.98%.

Question: What about the Sample titer (HSV-1, SC-16; NGNA 10 mM) of the same compound?
Answer: Its Sample titer is 2.50 log10 TCID50/ml.

Question: And the Virus reduction ([1]; NGNA 10 nM)?
Answer: The Virus reduction was 0.00%.

Question: What about the Virus reduction ([1]; NGNA 10 μM) of the same compound?
Answer: Its Virus reduction is 0.00%.

Question: What about the Virus reduction ([1]; NGNA 10 mM) of the same compound?
Answer: Its Virus reduction is 99.00%.

Question: And the Virus reduction (Feline Calicivirus (FCV); NGNA 10 nM)?
Answer: The Virus reduction was 0.00%.

Question: What about the Sample titer (Feline Calicivirus (FCV); NGNA 10 nM, control virus titer 5.50) of the same compound?
Answer: The Sample titer was 5.50 log10 TCID50/ml.

Question: What about the Virus reduction (Feline Calicivirus (FCV); NGNA 10 μM) of the same compound?
Answer: Its Virus reduction is 0.00%.

Question: And the Sample titer (Feline Calicivirus (FCV); NGNA 10 μM, control virus titer 5.50)?
Answer: The Sample titer was 5.50 log10 TCID50/ml.

Question: And the Virus reduction (Feline Calicivirus (FCV); NGNA 10 mM)?
Answer: The Virus reduction was 82.21%.

Question: What about the Sample titer (Feline Calicivirus (FCV); NGNA 10 mM, control virus titer 5.25) of the same compound?
Answer: The Sample titer was 4.50 log10 TCID50/ml.
